# Measured values taken from patent publication US11767374B2, “Method and use of Radix puerariae polysaccharide in promoting lipid-lowering activity” (JIANGXI UNIVERSITY OF TRADITIONAL CHINESE MEDICINE, priority 2020, dated 2023).
# System: high-cholesterol hyperlipidemia rats
# Assay: In vivo lipid-lowering experiment in high-cholesterol hyperlipidemia rats
# Design: species or system Wistar rats
# Details: plasma, positive drug 8 mg/kg, half a month
# Excerpt: 56 male Wistar rats (8 weeks old, body weight: 200 g±20 g) were purchased from Beijing Vital River Laboratory Animal Technology Co., Ltd. All animals were fed with a normal diet adaptively for 1 week.
# The rats were sampled every half month to determine the plasma total triglyceride (TG), total cholesterol (TC), low-density lipoprotein (LDL-C), and high-density lipoprotein (HDL-C) levels. 2 months later, all rats were anesthetized with isoflurane, and then blood samples were collected from the orbital vein using capillary tubes. The blood samples were centrifuged (4° C., 4,000 r×min^−1, and 15 min) to obtain plasma samples, a kit (purchased from Nanjing Jiancheng Biotechnology Co., Ltd., China) was used to make a standard curve, and a chromogenic reaction was conducted according to specified steps to determine the plasma TG, TC, LDL-C, and HDL-C levels, thereby determining whether hyperlipidemia models were successfully constructed.
# The rats were intragastrically administered for half a month. The night before the experiment, the rats were fasted; and on the day of the experiment, the rats were weighed and resulting body weights were recorded. The rats were anesthetized with isoflurane, then blood was collected from the orbit and placed in a heparin sodium centrifuge tube, and blood samples were centrifuged (4° C., 4,000 r×min^−1, and 15 min) to obtain plasma samples. A kit (purchased from Nanjing Jiancheng Biotechnology Co., Ltd., China) was used to make a standard curve, and the plasma TG, TC, LDL-C, and HDL-C levels were determined according to specified steps. The rats were sacrificed through cervical dislocation, and then a liver tissue was collected and weighed. A liver index was calculated according to the following formula: liver index=liver weight (g)/rat weight (g).
# Data analysis: In this experiment, the SPSS11.5 version was used to analyze data (3 repetitions), and analysis of variance (ANOVA) and intergroup Duncan multiple comparison were adopted.
smiles,measurement,value
"CCC(C)(C)C(=O)O[C@H]1C[C@@H](C)C=C2C=C[C@H](C)[C@H](CC[C@@H]3C[C@@H](O)CC(=O)O3)[C@H]21 [Simvastatin, simvastatin]",HDL-C,2.89 ± 0.44 b mmol/L
same,LDL-C,0.51 ± 0.09 b mmol/L
same,TG,0.87 ± 0.27 c mg/mL
